Laboratory results from BindingDB's records for doi:10.1016/S1074-5521(02)00281-8 (Massachusetts Institute of Technology, 2002).
Starred links: 1 amine or outer side, 2 acyl side, 3 side chain; linkers in the order of their positions; H or OH if unused. Positions of bridges follow the written chain, without caps; N, C: chain ends. Non-standard residues stand in square brackets, D forms with d. Residues, ends and D or L forms follow the SMILES beside them. Chains are numbered I, II in the order given. Actinocin(9to1) = Cc1c2oc3c(C)ccc(C(=O)[*:1])c3nc-2c(C(=O)[*:2])c(N)c1=O; NMeV = CN[C@H](C(=O)O)C(C)C; Sar = CNCC(=O)O

Molecular target: T1, Dolichyl-diphosphooligosaccharide--protein glycosyltransferase subunit 1 (Saccharomyces cerevisiae, UniProt P41543)
T1 sequence (P41543 whole entry): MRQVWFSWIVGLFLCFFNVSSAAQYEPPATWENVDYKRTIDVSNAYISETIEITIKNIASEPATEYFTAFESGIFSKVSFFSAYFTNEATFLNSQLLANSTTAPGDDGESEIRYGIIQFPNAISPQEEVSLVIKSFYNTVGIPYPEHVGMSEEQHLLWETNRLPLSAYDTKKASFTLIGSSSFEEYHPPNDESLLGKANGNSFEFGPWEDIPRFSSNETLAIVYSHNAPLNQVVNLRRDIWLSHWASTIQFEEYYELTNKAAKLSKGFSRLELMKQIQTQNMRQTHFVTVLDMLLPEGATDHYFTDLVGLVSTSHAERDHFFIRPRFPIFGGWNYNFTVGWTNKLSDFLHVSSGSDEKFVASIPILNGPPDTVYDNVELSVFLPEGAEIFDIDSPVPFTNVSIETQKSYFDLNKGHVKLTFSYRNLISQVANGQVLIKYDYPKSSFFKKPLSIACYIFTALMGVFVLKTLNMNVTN
Assay: Competition Assay
Settings: pH 7.5; 0 °C
Excerpt: Competition assay using S. cerevisiae oligosaccharyl transferase (OT)with disaccharide donor Dol-P-P-(GlcNAc)2 and the tripeptide substrate Bz-Asn-Leu-Thr-NHMe.

Compound | Ki
CC[N+](C)(CC)CCCCOc1ccc2c(c1)C(=O)c1cc(OCCCC[N+](C)(CC)CC)ccc1-2 [4-[7-[4-[diethyl(methyl)ammonio]butoxy]-9-keto-fluoren-2-yl]oxybutyl-diethyl-methyl-ammonium;iodide] | 4.5 µM
O=C(Nc1ccc(C2=NCCN2)cc1)c1ccc(C(=O)Nc2ccc(C3=NCCN3)cc2)c(Cl)c1 | 4 µM
COc1ccc(-n2cnnc2SCC(=O)Nc2cc(C)on2)cc1 [2-[[4-(4-methoxyphenyl)-1,2,4-triazol-3-yl]sulfanyl]-N-(5-methyl-1,2-oxazol-3-yl)acetamide] | 100 µM
COc1ccc(NS(=O)(=O)c2ccc(NC(=O)C(CCSC)NC(N)=O)cc2)cc1 (stereo not drawn) [2-(aminocarbonylamino)-N-[4-[(4-methoxyphenyl)sulfamoyl]phenyl]-4-methylsulfanyl-butanamide] | 34 µM
CC(=O)Nc1ccc(NC(=O)c2ccc(Cl)nc2)cc1 [Glycopeptide, 2] | 2.5 µM

Stronger by Ki, values ahead:

Ki | Compound
1.1 µM | COc1ccc(OC)c(Nc2nc(NCCCN(C)C)nc(N)c2[N+](=O)[O-])c1 [3-[[4-amino-6-(2,5-dimethoxyanilino)-5-nitro-pyrimidin-2-yl]amino]propyl-dimethyl-amine]
0.062 µM | COC(=O)c1ccc(O)c2nc3c(C=O)c(O)cc(O)c3nc12 [6-formyl-4,7-dihydroxy-9-keto-5H-phenazine-1-carboxylic acid methyl ester]
0.041 µM | Cc1c2oc3c(C)ccc(C(=O)N[C@@H]4C(=O)N[C@H](C(C)C)C(=O)N5CCC[C@H]5C(=O)N(C)CC(=O)N(C)[C@@H](C(C)C)C(=O)O[C@@H]4C)c3nc-2c(C(=O)N[C@@H]2C(=O)N[C@H](C(C)C)C(=O)N3CCC[C@H]3C(=O)N(C)CC(=O)N(C)[C@@H](C(C)C)C(=O)O[C@@H]2C)c(N)c1=O [2-amino-N,N''-bis[(3R,6S,7R,10S,16S)-3,10-diisopropyl-2,5,9,12,15-pentaketo-7,11,14-trimethyl-8-oxa-1,4,11,14-tetrazabicyclo[14.3.0]nonadecan-6-yl]-3-keto-4,6-dimethyl-phenoxazine-1,9-dicarboxamide] (I: T[dV]P[Sar][NMeV] / II: T[dV]P[Sar][NMeV]; ester I:1-I:C, II:1-II:C; linker I:N-II:N via Actinocin(9to1))
